For four molecules, MIC results are on record in US11155542B2, “Antimicrobial compounds, their use for the treatment of mammalian infections and a new metabolic mechanism” (priority 2016, dated 2021).

≈ marks a conversion by molar mass, not a printed value.

This assay has as its system Mtb (PDR) 12700. In words: Resazurin microtiter assay (REMA), MIC Mtb (PDR) 12700. The assay is classed as cell-based. Conditions: Mycobacterium tuberculosis; PDR = poly drug resistant (isoniazid and streptomycin). (In general: The colour change of resazurin is a common sign of viable cells or microbes.)

A word on the MIC: it is the smallest concentration in the dilution series that meets the test's criterion for growth inhibition. As for `C[C@H]1COC2(CCN(c3nc(=O)c4cc(C(F)(F)F)cc([N+](=O)[O-])c4s3)CC2)O1` [BTZ043, (S)-2-(2-methyl-1,4-dioxa-8-azaspiro[4.5]decan-8-yl)-8-nitro-6-(trifluoro-methyl)-4H-1,3-benzothiazin-4-one, reference compound], inhibition of growth (MIC) required 2 ng/mL (≈ 4.64 nM).

For `Cc1c(C(F)(F)F)cc([N+](=O)[O-])c2sc(N3CCC4(CC3)OC[C@H](C)O4)nc(=O)c12` [Example 9b, (S)-5-Methyl-2-(2-methyl-1,4-dioxa-8-azaspiro[4.5]decan-8-yl)-8-nitro-6-(trifluoromethyl)-4H-1,3-benzothiazin-4-one], the MIC was found to be 4 ng/mL (≈ 8.98 nM).

`Cc1c(C(F)(F)F)cc([N+](=O)[O-])c2sc(N3CCN(CC4CCCCC4)CC3)nc(=O)c12` [Example 16, 2-(4-(Cyclohexylmethyl)piperazin-1-yl)-5-methyl-8-nitro-6-(trifluoromethyl)-4H-1,3-benzothiazin-4-one]: the minimum inhibitory concentration (MIC) is no more than 0.063 ng/mL.

Molecule `Cc1c(C(F)(F)F)cc2c(=O)nc(N3CCC4(CC3)OC[C@H](C)O4)sc2c1[N+](=O)[O-]` [Example 9a, (S)-7-Methyl-2-(2-methyl-1,4-dioxa-8-azaspiro[4.5]decan-8-yl)-8-nitro-6-(trifluoromethyl)-4H-1,3-benzothiazin-4-one] had an MIC of 250 ng/mL (≈ 561 nM).
